Molecular target: T1, 5-lypoxygenase (Mus musculus, UniProt P48999)
T1 construct: The supernatant was used as the 5-lypoxygenase enzyme solution; endogenous in cells; host or cells: mouse mastocytoma P815 cells (supernatant of sonicated cells)
T1 sequence (P48999 1-674): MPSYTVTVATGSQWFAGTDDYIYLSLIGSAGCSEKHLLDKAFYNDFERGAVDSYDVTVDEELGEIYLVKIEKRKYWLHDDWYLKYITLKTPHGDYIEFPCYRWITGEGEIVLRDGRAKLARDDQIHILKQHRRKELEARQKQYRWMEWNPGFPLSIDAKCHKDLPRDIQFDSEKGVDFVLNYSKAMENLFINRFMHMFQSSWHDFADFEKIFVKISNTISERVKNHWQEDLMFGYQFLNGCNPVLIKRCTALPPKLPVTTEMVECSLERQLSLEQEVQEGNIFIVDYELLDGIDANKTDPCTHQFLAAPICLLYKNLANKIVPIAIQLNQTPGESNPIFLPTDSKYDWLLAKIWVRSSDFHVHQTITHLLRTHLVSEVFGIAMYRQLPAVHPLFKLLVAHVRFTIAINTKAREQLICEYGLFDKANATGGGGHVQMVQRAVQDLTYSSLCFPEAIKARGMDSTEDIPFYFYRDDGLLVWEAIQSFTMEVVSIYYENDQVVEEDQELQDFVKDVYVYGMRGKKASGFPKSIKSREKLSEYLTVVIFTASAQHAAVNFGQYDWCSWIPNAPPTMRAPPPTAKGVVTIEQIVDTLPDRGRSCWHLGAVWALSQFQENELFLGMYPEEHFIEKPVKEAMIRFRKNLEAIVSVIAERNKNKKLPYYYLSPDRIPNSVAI
Experiment: 5-Lypoxygenase-inhibiting activity (formation of 5-HETE and LTB4 from radiolabelled arachidonic acid, supernatant of sonicated mouse mastocytoma P815 cells)
Type: biochemical
Conditions: inhibition of formation of 5-HETE and LTB4; 37° C., 5 min; pH 7.4 phosphate buffer; P815 cell supernatant; indomethacine present; read-out: 50% inhibitory concentration IC50
Method: Mouse mastocytoma cells, strain P815 were diluted in a medium containing 90% of the Eagle basal medium (manufactured by Gibco Laboratories) to a cencentration of 5×10^4 cells/ml. The diluted liquor was subjected to shake culture in air at 37° C. for 48 hours. The culture liquor was cooled with ice and centrifuged to collect the cells. The cells were re-suspended in a phosphate buffer solution at pH 7.4 to a concentration of 2×10^7 cells/ml. The suspension was treated in an ultrasonic cell fragmenting machine and then centrifuged at […] for 10 min. The supernatant was used as the 5-lypoxygenase enzyme solution. To a test tube in which 20 μl of radiolabelled arachidonic acid (10 μ curies/ml), indomethacine ([…]) and an amide derivative of the invention to be tested were placed 0.45 ml of phosphate buffer solution, 0.45 ml of the above-prepared enzyme solution and 0.1 ml of 8 mM CaCl2 (calcium chloride) solution. The mixture was reacted at 37° C. for 5 min. […] Determination of the inhibitory activity was made by collecting the portion corresponding to 5-HBTE (5-(s)-hydroxy-6,8,11,14-eicosatetraenic acid) and LTB4 (leucotriene B4), which were 5-lypoxygenase products as detected with a radio-thin layer scanner (Dunnschicht-scanner II LB 2723 manufactured by Berthold), and measuring the radioactivity by means of a scintillation counter. […]

| IC50 | SMILES |
| --- | --- |
| 4000 nM | COc1cc(/C=C/C(=O)Nc2c(Br)cc(Br)cc2CN(C)C2CCCCC2)ccc1O [Example 1, N-cyclohexyl-N-methyl-(2-(3-(3-methoxy-4-hydroxyphenyl)-2-propenoylamino)-3,5-dibromobenzyl)amine] |
| 300 nM | COc1cc(/C=C/C=C/C(=O)Nc2c(Br)cc(Br)cc2CN(C)C2CCCCC2)ccc1O [Example 2, N-cyclohexyl-N-methyl-(2-(5-(3-methoxy-4-hydroxyphenyl)2,4-pentadienoylamino)-3,5-dibromobenzyl)amine] |

From patent US4816486A, “Amide derivatives and 5-lypoxygenase inhibitors containing the same” (Terumo Corporation, priority 1985, dated 1989)
